In brackets after ≈: the same amount, converted by molar mass.
Key:
Cyperus iria [1] = assay: Herbicidal activity against Cyperus iria at 75 g a.i./ha measured after 14 days relative to control; type: functional
Trifolium repens [2] = assay: Herbicidal activity against Trifolium repens at 75 g a.i./ha measured after 14 days relative to control; type: functional
Dactylis glomerata [3] = assay: Herbicidal activity against Dactylis glomerata at 75 g a.i./ha measured after 14 days relative to control; type: functional
Echinochloa crus-galli [4] = assay: Herbicidal activity against Echinochloa crus-galli (barnyard grass) at 75 g a.i./ha measured after 14 days relative to control; type: functional
Trifolium repens [5] = assay: Herbicidal activity against Trifolium repens measured after 14 days relative to control; type: functional, organism-based; details: for EC50: 336 h
Cyperus iria [6] = assay: Herbicidal activity against Cyperus iria measured after 14 days relative to control; type: functional, organism-based; details: for EC50: 336 h
Dactylis glomerata [7] = assay: Herbicidal activity against Dactylis glomerata measured after 14 days relative to control; type: functional, organism-based; details: for EC50: 336 h
Echinochloa crus-galli [8] = assay: Herbicidal activity against Echinochloa crus-galli (barnyard grass) measured after 14 days relative to control; type: functional, organism-based; details: for EC50: 336 h
Echinochloa crus-galli [9] = assay: Herbicidal activity against Echinochloa crus-galli (barnyard grass) at 15 g a.i./ha measured after 14 days relative to control; type: functional
Cyperus iria [10] = assay: Herbicidal activity against Cyperus iria at 15 g a.i./ha measured after 14 days relative to control; type: functional
Dactylis glomerata [11] = assay: Herbicidal activity against Dactylis glomerata at 15 g a.i./ha measured after 14 days relative to control; type: functional
Trifolium repens [12] = assay: Herbicidal activity against Trifolium repens at 15 g a.i./ha measured after 14 days relative to control; type: functional

Structure (SMILES)	Activity (Cyperus iria [1]) [%]	Activity (Trifolium repens [2]) [%]	Activity (Dactylis glomerata [3]) [%]	Activity (Echinochloa crus-galli [4]) [%]	Activity (Trifolium repens [5])	EC50 (Trifolium repens [5]) [µg/mL]	Activity (Cyperus iria [6])	EC50 (Cyperus iria [6]) [µg/mL]	Activity (Dactylis glomerata [7])	EC50 (Dactylis glomerata [7]) [µg/mL]	Activity (Echinochloa crus-galli [8])	EC50 (Echinochloa crus-galli [8]) [µg/mL]	Activity (Echinochloa crus-galli [9]) [%]	Activity (Cyperus iria [10]) [%]	Activity (Dactylis glomerata [11]) [%]	Activity (Trifolium repens [12]) [%]
CCOC(=O)c1c(SC)nn(C)c1NCCCN=C=S	58.96	62.39	56.25	52.32	–	–	–	–	–	–	–	–	–	–	–	–
CCOC(=O)c1c(SC)nn(-c2ccccc2)c1NCCCN=C=S	60.23	60.68	59.08	58.93	–	–	–	–	–	–	–	–	–	–	–	–
N#Cc1c(SCc2ccccc2)nn(-c2ccccc2)c1NCCCN=C=S	86.53	75.57	79.26	79.39	Dose-dependent effect	67.7 (≈ 167 µM)	Dose-dependent effect	65.8 (≈ 162 µM)	Dose-dependent effect	62.4 (≈ 154 µM)	Dose-dependent effect	64.3 (≈ 159 µM)	–	–	–	–
C=CCN=C=S [ALLYL ISOTHIOCYANATE]	32.59	13.33	40.12	25.86	–	–	–	–	–	–	–	–	–	–	–	–
CCOC(=O)c1c(SCc2ccccc2)nn(-c2ccccc2)c1NCCCN=C=S	68.59	65.78	64.53	65.32	–	–	–	–	–	–	–	–	–	–	–	–
CCOC(=O)c1c(SCc2ccccc2)nn(C)c1NCCCN=C=S	55.36	45.12	46.53	63.32	–	–	–	–	–	–	–	–	–	–	–	–
CSc1nn(-c2ccccc2)c(NCCCN=C=S)c1C#N	57.69	56.46	55.62	54.62	–	–	–	–	–	–	–	–	–	–	–	–
CSc1nn(C)c(NCCCN=C=S)c1C#N	70.23	73.33	74.33	78.69	Dose-dependent effect	67.4 (≈ 252 µM)	Dose-dependent effect	64.9 (≈ 243 µM)	Dose-dependent effect	59.4 (≈ 222 µM)	Dose-dependent effect	65.3 (≈ 244 µM)	–	–	–	–
Cn1nc(SCc2ccccc2)c(C#N)c1NCCCN=C=S	42.56	34.48	31.25	44.62	–	–	–	–	–	–	–	–	–	–	–	–
CCOC(=O)c1ccccc1S(=O)(=O)NC(=O)Nc1nc(Cl)cc(OC)n1 [CHLORIMURON ETHYL]	–	–	–	–	–	9.98 (≈ 24.1 µM)	–	12.9 (≈ 31.1 µM)	–	15.2 (≈ 36.7 µM)	–	10.7 (≈ 25.7 µM)	98.32	92.23	78.25	95.69

— ChEMBL document CHEMBL3046919, “Synthesis and herbicidal activity of substituted pyrazole isothiocyanates” (Molecules, 2012)
